Test system: HeLa cells
Assay: Cell-based pharmacodynamic assay (CellTiter-Glo proliferation inhibition), HeLa
Conditions: human cervical cancer HeLa cells; 72 hours incubation; CellTiter-Glo luminescence; read-out: IC50 against HeLa cells
Description: Complete media such as RPMI 1640 (Gibco, A1049101), EMEM (ATCC, 30-2003), DMEM (Gibco, C11995500CP), McCoy's 5A (Gibco, 16600082), and F-12K (ATCC, 30-2004) were prepared by supplementing with varying concentrations of FBS (Biological Industries, 04-002-1A) and 1% Penicillin-Streptomycin (Gibco, 15140122) and was thoroughly mixed. Tumor cell lines including HeLa (ATCC, CCL-2; EMEM + 10% FBS), TOV-21G (Cobioer, CBP60292; 1:1 mixture of MCDB 105 and Medium 199 + 15% FBS), OVCAR-3 (ATCC, HTB-161; RPMI 1640 + 20% FBS + 0.01 mg/ml bovine insulin), SK-OV-3 (ATCC, HTB-77; McCoy's 5A + 10% FBS), A2780 (Cobioer, CBP60283; RPMI 1640 + 10% FBS), OC316 (Cobioer, CBP60620; RPMI 1640 + 10% FBS), HuH-7 (Cobioer, CBP60202; DMEM + 10% FBS), SNU-398 (ATCC, CRL-2233; RPMI 1640 + 10% FBS), NCI-H2286 (ATCC, CRL-5938; RPMI 1640 + 5% FBS), NCI-H82 (ATCC, HTB-175; RPMI 1640 + 10% FBS), A549 (ATCC, CCL-185; F-12K + 10% FBS), SK-MEL-3 (ATCC, HTB-69; McCoy's 5A + 15% FBS), PSN-1 (Cobioer, CBP61215; RPMI 1640 + 10% FBS), LoVo (ATCC, CCL-229; F-12K + 10% FBS), DLD-1 (ATCC, CCL-221; RPMI 1640 + 10% FBS), HCT-15 (ATCC, CCL-225; RPMI 1640 + 10% FBS), A498 (ATCC, HTB-44; EMEM + 10% FBS), LNCaP (ATCC, CRL-1740; RPMI 1640 + 10% FBS), SNU-1 (ATCC, CRL-5971; RPMI 1640 + 10% FBS), SCC-9 (Cobioer, CBP60428; DMEM/F12 (1:1) + 10% FBS + 0.5 mM sodium pyruvate + 400 ng/ml hydrocortisone), SU-DHL-5 (ATCC, CRL-2958; RPMI 1640 + 10% FBS), Toledo (ATCC, CRL-2631; RPMI 1640 + 10% FBS), and SJCRH30 (ATCC, CRL-2061; RPMI 1640 + 10% FBS) were thawed. Cells were passaged approximately twice, and those in good growth condition (typically passages 4-6) were selected for experiments. The medium was aspirated, and the cells were washed once with 0.25% trypsin (Invitrogen, 25200-072). The waste liquid was discarded, and 3 mL of fresh trypsin was added to the culture flask for digestion. When the cells began to detach, 9 mL of complete medium was added to neutralize the trypsin digestion, and the mixture was gently mixed. The cell suspension was transferred to a centrifuge tube using a pipette and centrifuged at 1000 rpm for 5 minutes. The supernatant was discarded, and 5 mL of medium was added to the centrifuge tube to gently resuspend the cells evenly. The cell concentration was adjusted to 1×10^4/mL-3×10^4/mL using a cell counter (Beckman Coulter, Vi-cellTM XR). The cell suspension was added to a 96-well plate (Corning, 3903) at 100 µL/well. The plate was labeled with details such as cell name, seeding density, and date, and then placed in a CO2 incubator (Thermo, Thermo 3111) overnight. Test compounds were prepared as 20 mM stock solutions in DMSO (Sigma, D4540-1L) and added to the corresponding cell wells using an HPD300 automated dispenser according to the designed layout. The plates were incubated in a 37°C, 5% CO2 incubator for 72 hours. CellTiter-Glo Buffer was thawed at room temperature. The lyophilized CellTiter-Glo substrate was equilibrated to room temperature. The CellTiter-Glo Buffer was added to the CellTiter-Glo substrate and thoroughly mixed. The cell plates were removed and equilibrated to room temperature, and 50 µL of the mixed CellTiter-Glo reagent was added to each well. The plates were protected from light and shaken for 10 minutes, followed by incubation for 10 minutes. The plates were placed in an Enspire reader (luminescence measurement time: 0.5 s) to record luminescence results. The inhibition rate was calculated using the following formula: Inhibition rate (%) = (1 - (RLU_compound - RLU_blank) / (RLU_DMSO - RLU_blank)) × 100%. Dose-response curves were plotted using XLFit to calculate IC50 values. A four-parameter model was used: [fit = (A + ((B - A) / (1 + ((C/x) ^ D)))]. The test results for HeLa cells are shown in Table 1. Table 1: IC50 values of some test compounds against human cervical cancer HeLa cells

Compound | IC50
CCOC(=O)c1cccc2c1c1c(n2C(=O)/C=C/C(=O)OC)C(=O)CCC1 [Compound C15] | ≤ 200 nM
CCCCCOC(=O)n1c2c(c3c(C(=O)OCC)cccc31)CCCC2=O [Compound C16] | ≤ 200 nM
CCOC(=O)c1cccc2c1c1c(n2C(=O)C2CCOCC2)C(=O)CCC1 [Compound C17] | ≤ 200 nM
CCOC(=O)c1cccc2c1c1c(n2C(=O)OC2CCN(C)CC2)C(=O)CCC1 [Compound C18] | ≤ 200 nM
CCOC(=O)c1cccc2c1c1c(n2C(=O)c2ccc(F)cc2)C(=O)CCC1 [Compound C19] | ≤ 200 nM
CCOC(=O)c1cccc2c1c1c(n2C(=O)c2ccc(Cl)cc2)C(=O)CCC1 [Compound C20] | ≤ 200 nM
CCOC(=O)c1cccc2c1c1c(n2C(=O)c2ccc(OC)cc2)C(=O)CCC1 [Compound C21] | ≤ 200 nM
C#Cc1cccc(C(=O)n2c3c(c4c(C(=O)OCC)cccc42)CCCC3=O)c1 [Compound C22] | ≤ 200 nM
CCOC(=O)c1cccc2c1c1c(n2C(=O)c2ccc(C)cc2)C(=O)CCC1 [Compound C23] | ≤ 200 nM
CCOC(=O)c1cccc2c1c1c(n2C(=O)C2CCN(C)CC2)C(=O)CCC1 [Compound C24] | ≤ 200 nM
CCOC(=O)c1cccc2c1c1c(n2C(=O)c2ccccc2OC)C(=O)CCC1 [Compound C25] | ≤ 200 nM
CCOC(=O)c1cccc2c1c1c(n2C(=O)c2ncoc2C)C(=O)CCC1 [Compound C26] | ≤ 200 nM
CCOC(=O)c1cccc2c1c1c(n2C(=O)c2ccc(C)cn2)C(=O)CCC1 [Compound C27] | ≤ 200 nM
CCOC(=O)c1cccc2c1c1c(n2C(=O)/C=C/c2ccc(O)c(OC)c2)C(=O)CCC1 [Compound C29] | ≤ 200 nM
CCOC(=O)c1cccc2c1c1c(n2C(=O)C2OC2C)C(=O)CCC1 (stereo not drawn) [Compound C30] | ≤ 200 nM
CCOC(=O)c1cccc2c1c1c(n2C(=O)c2ccccc2O)C(=O)CCC1 [Compound C31] | ≤ 200 nM
CCOC(=O)c1cccc2c1c1c(n2C(=O)c2cc(C)cc(OCC)n2)C(=O)CCC1 [Compound C32] | ≤ 200 nM
CCOC(=O)c1cccc2c1c1c(n2C(=O)CN2CCN(C)CC2)C(=O)CCC1 [Compound C34] | ≤ 200 nM
CCOC(=O)c1cccc2c1c1c(n2C(=O)CC2CCOCC2)C(=O)CCC1 [Compound C35] | ≤ 200 nM

Compound | IC50
CCOC(=O)c1cccc2c1c1c(n2C(=O)C2(c3ccc4c(c3)OC(F)(F)O4)CC2)C(=O)CCC1 [Compound C36] | ≤ 200 nM
CCOC(=O)c1cccc2c1c1c(n2C(=O)C2COC2)C(=O)CCC1 [Compound C38] | ≤ 200 nM
CCOC(=O)c1cccc2c1c1c(n2C(=O)CCCCCN)C(=O)CCC1 [Compound C42] | ≤ 200 nM
CCOC(=O)c1cccc2c1c1c(n2C(=O)C#CC2(C)COC2)C(=O)CCC1 [Compound C43] | ≤ 200 nM
CCOCCOCC(=O)n1c2c(c3c(C(=O)OCC)cccc31)CCCC2=O [Compound C44] | ≤ 200 nM
CCOC(=O)c1cccc2c1c1c(n2C(=O)C2(C)CCOCC2)C(=O)CCC1 [Compound C45] | ≤ 200 nM
CCOC(=O)c1cccc2c1c1c(n2C(=O)C2(F)CCOCC2)C(=O)CCC1 [Compound C49] | ≤ 200 nM
CCOC(=O)c1cccc2c1c1c(n2C(=O)CCCN(C)C)C(=O)CCC1 [Compound C50] | ≤ 200 nM
CCOC(=O)c1cccc2c1c1c(n2C(=O)CCCCC(F)F)C(=O)CCC1 [Compound C51] | ≤ 200 nM
CCCCCC(=O)n1c2c(c3c(-c4cnn(C(C)C)c4)cccc31)CCCC2=O [Compound C52] | ≤ 200 nM
CCOC(=O)c1cccc2c1c1c(n2C(=O)CCCCCO)C(=O)CCC1 [Compound C55] | ≤ 200 nM
CCOC(=O)c1cccc2c1c1c(n2C(=O)C2CC3(CC(C(=O)O)C3)C2)C(=O)CCC1 (stereo not drawn) [Compound C56] | ≤ 200 nM
CCOC(=O)c1cccc2c1c1c(n2C(=O)c2c[nH]cc2C(F)(F)F)C(=O)CCC1 [Compound C57] | ≤ 500 nM
CCOC(=O)c1cccc2c1c1c(n2C(=O)[C@@H](C)OCc2ccccc2)C(=O)CCC1 [Compound C58] | ≤ 200 nM
CCOC(=O)c1cccc2c1c1c(n2C(=O)/C=C/c2ccc(OC)c(OC)c2)C(=O)CCC1 [Compound C59] | ≤ 200 nM
Cn1cc(-c2cccc3c2c2c(n3C(=O)C3CC(F)(F)C3)C(=O)CCC2)cn1 [Compound C60] | ≤ 200 nM
Cc1ccc2[nH]c3c(c2c1)CCCC3=NCC(C)(C)O [Compound E03] | ≤ 500 nM
Cc1ccc2[nH]c3c(c2c1)CCCC3=N[C@@H]1CCNC1 [Compound E04R] | ≤ 200 nM
Cc1ccc2[nH]c3c(c2c1)CCCC3=N[C@@H]1CCN(C)C1 [Compound E05R] | ≤ 200 nM

Compound | IC50
Cc1ccc2[nH]c3c(c2c1)CCCC3=NCC1(C)NC(=O)NC1=O (stereo not drawn) [Compound E07] | ≤ 200 nM
Cc1ccc2[nH]c3c(c2c1)CCCC3=NC1(CO)CCC1 [Compound E08] | ≤ 200 nM
Cc1ccc2[nH]c3c(c2c1)CCCC3=NC1CC(C(N)=O)C1 (stereo not drawn) [Compound E09] | ≤ 500 nM
Cc1ccc2[nH]c3c(c2c1)CCCC3=NCC(=O)OC(C)(C)C [Compound E10] | ≤ 200 nM
Cc1ccc2[nH]c3c(c2c1)CCCC3=NCCNCCO [Compound E11] | ≤ 200 nM
Cc1ccc2[nH]c3c(c2c1)CCCC3=NC1CCN(C)CC1 [Compound E13] | ≤ 200 nM
Cc1ccc2[nH]c3c(c2c1)CCCC3=NC(CO)CO [Compound E14] | ≤ 200 nM
COC(=O)c1cccc2[nH]c3c(c12)CCCC3=NCC(=O)OC(C)(C)C [Compound E29] | ≤ 200 nM
COC(=O)c1cccc2[nH]c3c(c12)CCCC3=NCCO [Compound E30] | ≤ 200 nM
Cc1ccc2[nH]c3c(c2c1)CCCC3=NCCOCCO [Compound E31] | ≤ 200 nM
[2H]C([2H])([2H])c1ccc2[nH]c3c(c2c1)CCCC3=NCC(=O)OC(C)(C)C [Compound E32] | ≤ 200 nM
COc1ccc2[nH]c3c(c2c1)CCCC3=NCC(=O)OC(C)(C)C [Compound E33] | ≤ 500 nM
COC(=O)c1ccc2[nH]c3c(c2c1)CCCC3=NCC(=O)OC(C)(C)C [Compound E34] | ≤ 200 nM
COc1ccc2[nH]c3c(c2n1)CCCC3=NCC(=O)OC(C)(C)C [Compound E35] | ≤ 200 nM
COC(=O)c1ccc2[nH]c3c(c2c1)CCCC3=NCCO [Compound E36] | ≤ 200 nM
COc1ccc2[nH]c3c(c2n1)CCCC3=NCCO [Compound E37] | ≤ 200 nM
Cc1ccc2[nH]c3c(c2c1)CCC/C3=N\[C@@H](Cc1ccccc1)C(=O)OC(C)(C)C [Compound E38] | ≤ 200 nM
Cc1ccc2[nH]c3c(c2c1)CCCC3=NC(CC(N)=O)C(=O)OC(C)(C)C (stereo not drawn) [Compound E39] | ≤ 200 nM
Cc1ccc2[nH]c3c(c2c1)CCCC3=NC(Cc1ccc(O)cc1)C(=O)OC(C)(C)C (stereo not drawn) [Compound E40] | ≤ 200 nM

Source: patent EP4711356A1, “TETRAHYDROCARBAZOLE DERIVATIVE, PHARMACEUTICAL COMPOSITION, AND USE THEREOF” (Nain Biotech (Hangzhou) Co., Ltd., priority 2023, dated 2024)
